{"source": "patent US11723907B2", "about": "“Anti-aging compounds” (THE CLEVELAND CLINIC FOUNDATION, priority 2017, dated 2023)", "key": {"[1]": {"test_system": "fibroblasts derived from Werner syndrome patient", "assay": "RLS of Werner syndrome fibroblasts", "format": "cell-based, human", "description": "(§1) FIGS. 1A-1I provide graphs and images showing a new high throughput method for simultaneous detection of senescence associated SAβG activity and ATP in culture of normal pre-aged cells identified two potent anti-aging scaffolds. (A). General schema of HTS. (B). […] (C). Structures and corresponding tautameric forms of lead compounds. (D) Evaluation of possible genotoxic effect of experimental drugs in modified Ames test. 4-Nitroquinoline 1-oxide (4NQO) was used as a positive control. […] The general schema of RLS measurement in different cell types. (F) VA and N2N1 considerably extend RLS of normal human fibroblasts (NHDF) and stromal cells isolated from human normal bone marrow. (G). […] (I). Upper panel: Morphological appearance of NHDF at late passages with or without treatment. Lower panel: Cells were also fixed in para-formaldehyde and stained to detect SAβG."}, "[2]": {"test_system": "bone marrow cells from aplastic anemia patients", "assay": "Colony assay, aplastic anemia bone marrow", "format": "cell-based, human", "details": "tissue culture derived from aplastic anemia patients", "description": "While performing a multidrug screen for the agents that could simultaneously decrease senescence and overcome proliferative block in pre-senescent mesenchymal cells, the inventors identified two promising lead compounds violuric acid (VA) and 1-naphthoquinone-2-monoxime (N2N1). […] In term of hematopoietic stem cells (HSC) these agents prolonged the availability of HSC in methylcellulose (replicative/serial re-plating) experiments, long-term culture initiating cell assays (LTC-IC) and increased the performance of HSC in a competitive repopulation assay, the CD45.1/2 model. Furthermore, the inventors observed colonies formation in methylcellulose colony assay, after application of these drugs to the mononucleocyte fraction of bone marrow isolated from the patients diagnosed with severe AA. […] These compounds belong to a family of redox catalysts with unique chemical structure that shares a combined electrophile-nucleophile potential, a feature that renders these molecules effective anti-aging treatment in various biological model systems.\nFIGS. 2A-2G provide graphs and images showing N2N1 and VA support HSC/progenitors populations under pressure of differentiation and tissue culture stress in vitro and in vivo. General schema of CFU (A) and LTC-IC assays (B). […] Representative result of three NBM is shown. (D) The morphology of cells at the end of 1st part of LTC-IC assay is shown. […]"}, "NHDF": {"test_system": "NHDF", "assay": "SAβG staining of NHDF at late passages", "format": "cell-based, human", "description": "as §1\nThe inventors developed a new high-throughput screening (HTS) method for identification of anti-aging drugs (FIG. 1). The novel method was specifically designed for simultaneous detection of β-galactosidase activity in cell lysate followed by ATP detection by standard luciferase based assay. […] Altogether, the procedure allowed a simultaneous quantifiable detection of senescence associated β-galactosidase (SAβG) activity and evaluation of ATP level as a sign of improved proliferative capacity or cytotoxicity. […]"}, "[3]": {"assay": "Modified Ames test for genotoxic effect", "details": "4NQO positive control", "description": "as §1"}, "cancer cell lines": {"test_system": "cancer cell lines", "assay": "Treatment of cancer cell lines", "format": "cell-based"}, "[4]": {"test_system": "mitochondrial respiration rate", "assay": "Mitochondrial respiration and glycolysis on Seahorse apparatus", "format": "cell-based", "details": "within few minutes or even hours after addition", "description": "Based on results obtained on tissue cultured cells (increased RLS) and an increase in the numbers of HSC surrogate cells (LTC-IC or CFU), the inventors set their future goal to develop a novel pharmacological treatment for AA patients and potentially for other BMF. They have examined the most prominent features of cellular aging: telomere shortening, mitochondrial dysfunction or decline in respiratory capacity and shift in intracellular redox balance toward more oxidized environment. […] The only persistent effect of VA was considerable reduction in global protein disulfide bonds (up to 30%) detected by Elman's reagent or direct labelling of reduced sulfhydryl groups with biotin-switch assay (FIG. 3A). That brought the reductive hypothesis to the inventors' attention. The redox potential is controlled by sophisticated set of diverse enzymes and this system is fed from generation of NADPH by multiple hydrogenases (FIG. 3B). Among them, the glucose-6-phosphate dehydrogenase (G6P) is most important, because it controls the rate limiting step of pentose phosphate pathway. The other important dehydrogenases are isocytrate dehydrogenases (cytoplasmic and mitochondrial, IDH1/2) and 6-phosphogluconate dehydrogenase (6PG). The next anti-oxidant cellular protection layer is thioredoxin and glutathione systems (FIG. 3B). The first one is composed of thioredoxin reductase (TrxR) and thioredoxin. […]"}, "[5]": {"test_system": "erythropoietin-dependent UT7 cells", "assay": "Growth of erythropoietin-dependent UT7 cells", "format": "cell-based"}}}
{"smiles": "O=C1/C(=N/O)C=Cc2ccccc21", "note": "[N2N1, 1-naphthoquinone-2-monoxime]", "values": [{"measurement": "response of RLS to treatment", "setting": "[1]", "result": "did not respond"}, {"measurement": "colonies formation", "setting": "[2]", "result": "promote colonies formation"}, {"measurement": "number of SAβG positive cells", "setting": "NHDF", "result": "substantially decreased"}, {"measurement": "genotoxic effect", "setting": "[3]", "result": "did not show any detrimental effect on DNA integrity"}, {"measurement": "toxicity / proliferation", "setting": "cancer cell lines", "result": "partially toxic"}, {"measurement": "immediate response in mitochondrial respiration rate or glycolysis efficacy", "setting": "[4]", "result": "could not detect any immediate"}]}
{"smiles": "O=C1NC(=O)C(=NO)C(=O)N1", "note": "[VA, 2,4,5,6(1H,3H)-pyrimidine-tetrone 5-oxime]", "values": [{"measurement": "response of RLS to treatment", "setting": "[1]", "result": "did not respond"}, {"measurement": "colonies formation", "setting": "[2]", "result": "promote colonies formation"}, {"measurement": "number of SAβG positive cells", "setting": "NHDF", "result": "substantially decreased"}, {"measurement": "genotoxic effect", "setting": "[3]", "result": "did not show any detrimental effect on DNA integrity"}, {"measurement": "toxicity / proliferation", "setting": "cancer cell lines", "result": "neither toxic nor pro-proliferative"}, {"measurement": "immediate response in mitochondrial respiration rate or glycolysis efficacy", "setting": "[4]", "result": "could not detect any immediate"}, {"measurement": "growth support", "setting": "[5]", "result": "does not support the growth"}]}
